Assays:
[1] = test system: Ras processing in COS cells; assay: COS Cell IC50 (Cell-Based Assay), inhibition of Ras processing; settings: procedures described in WO 95/10516
Procedure: (§1) FPT IC50 (inhibition of farnesyl protein transferase, in vitro enzyme assay), COS Cell IC50 (Cell-Based Assay), GGPT IC50 (inhibition of geranylgeranyl protein transferase, in vitro enzyme assay), Cell Mat Assay, and anti-tumor activity (in vivo anti-tumor studies) are determined by the assay procedures described in WO 95/10516.

[2] = target: farnesyl protein transferase (Homo sapiens, UniProt P49354+P49356); assay: FPT IC50 (inhibition of farnesyl protein transferase, in vitro enzyme assay); format: biochemical; settings: procedures described in WO 95/10516
Procedure: as §1

Row | Compound | IC50 [2] | IC50 [1]
1 | O=C(CN1CCNC1=O)N1CCC([C@H]2c3ncc(Br)cc3CCc3cc(Cl)cc(Br)c32)CC1 [Example 7, (+)-4-(3,10-Dibromo-8-chloro-6,11-dihydro-5H-benzo[5,6]cyclohepta-[1,2-b]pyridin-11-yl)-1-[(2-oxo-1-imidazolidinyl)acetyl]piperidine] | 23 nM | –
2 | O=C(CCCN1CCNC1=O)N1CCC([C@H]2c3ncc(Br)cc3CCc3cc(Cl)cc(Br)c32)CC1 [Example 9] | 16 nM | –
3 | O=C(CN1CCCNC1=O)N1CCC([C@H]2c3ncc(Br)cc3CCc3cc(Cl)cc(Br)c32)CC1 [Example 10, (+)-4-(3,10-Dibromo-8-chloro-6,11-dihydro-5H-benzo[5,6]cyclohepta-[1,2-b]pyridin-11-yl)-1-[(hexahydro-2-oxo-1-pyrimidinyl)acetyl]piperidine] | 3.2 nM | 16 nM
4 | O=C(CCN1CCCNC1=O)N1CCC([C@H]2c3ncc(Br)cc3CCc3cc(Cl)cc(Br)c32)CC1 [Example 11, (+)-4-(3,10-Dibromo-8-chloro-6,11-dihydro-5H-benzo[5,6]cyclohepta-[1,2-b]pyridin-11-yl)-1-[1-oxo-3-(hexahydo-2-oxo-1-pyrimidinyl)-oxopropyl]piperidine] | 20 nM | –
5 | O=C(CCCN1CCCNC1=O)N1CCC([C@H]2c3ncc(Br)cc3CCc3cc(Cl)cc(Br)c32)CC1 [Example 12, (+)-4-(3,10-Dibromo-8-chloro-6,11-dihydro-5H-benzo[5,6]cyclohepta[1,2-b]pyridin-11-yl)-1-[4-(hexahydo-2-oxo-1-pyrimidinyl)oxobutyl]piperidine] | 56 nM | –

The next lines start with results.

Row | IC50 [2] | Compound | IC50 [1]
6 | 4 nM | O=C(CN1CCCC1=O)N1CCC([C@H]2c3ncc(Br)cc3CCc3cc(Cl)cc(Br)c32)CC1 [Example 1, (+)-4-(3,10-Dibromo-8-chloro-6,11-dihydro-5H-benzo[5,6]cyclohepta-[1,2-b]pyridin-11-yl)-1-[(2-oxo-1-pyrrolidinyl)acetyl]piperidine] | 500 nM
7 | 85 nM | O=C1CCCN1CCCC(=O)N1CCC([C@H]2c3ncc(Br)cc3CCc3cc(Cl)cc(Br)c32)CC1 [Example 3, (+)-4-(3,10-Dibromo-8-chloro-6,11-dihydro-5H-benzo[5,6]cyclohepta-[1,2-b]pyridin-11-yl)-1-[1-oxo-4-(2-oxo-1-pyrrolidinyl)butyl]piperidine] | –
8 | 2.8 nM | O=C(CN1CCCCC1=O)N1CCC([C@H]2c3ncc(Br)cc3CCc3cc(Cl)cc(Br)c32)CC1 [Example 4, (+)-4-(3,10-Dibromo-8-chloro-6,11-dihydro-5H-benzo[5,6]cyclohepta-[1,2-b]pyridin-11-yl)-1-[(2-oxo-1-piperidinyl)acetyl]piperidine] | –
9 | 19 nM | O=C1CCCCN1CCC(=O)N1CCC([C@H]2c3ncc(Br)cc3CCc3cc(Cl)cc(Br)c32)CC1 [Example 5, (+)-4-(3,10-Dibromo-8-chloro-6,11-dihydro-5H-benzo[5,6]cyclohepta-[1,2-b]pyridin-11-yl)-1-[1-oxo-3-(2-oxo-1-piperidinyl)propyl]piperidine] | –
10 | 80 nM | O=C1CCCCN1CCCC(=O)N1CCC([C@H]2c3ncc(Br)cc3CCc3cc(Cl)cc(Br)c32)CC1 [Example 6, (+)-4-(3,10-Dibromo-8-chloro-6,11-dihydro-5H-benzo[5,6]cyclohepta-[1,2-b]pyridin-11-yl)-1-[1-oxo-4-(2-oxo-1-piperidinyl)butyl]piperidine] | –

— patent US5852034A, “Benzo(5,6)cycloheptapyridine cyclic ureas and lactams useful as farnesyl protein transferase inhibitors” (Schering Corporation, priority 1997, dated 1998)
